Literature values as cited in patent US20070162983A1, “Diagnostic and therapeutic use of the human sgpl1 gene and protein for neurodegenerative diseases” (Evotec NeuroSciences GmbH, priority 2003, published 2007).
pIC50, pKi: −log10 of the molar value.

Columns and labels:
SGPL1 = settings: known specific inhibitors of SGPL1 activity; for pIC50: read-out: IC50, inhibition of SGPL1 activity
[1] = dogs, estimated (Tosaka et al., Stroke 2001)

| Molecule | pIC50 (SGPL1) | also measured |
| --- | --- | --- |
| CCCC[C@H](C)[C@H](O)[C@H](O)C[C@H](C)C[C@@H](O)CCCC[C@@H](O)C[C@H](O)[C@H](C)N | 4.70 |  |
| 2-vinyl analog of sphinganine phosphate | 5.62 |  |
| CCCCCCCCCCCCCCC[C@H](O)[C@@H](N)COP(=O)(O)O (single isomer, unassigned) [2D,3L-isomer of sphinganine phosphate] |  | pKi (SGPL1; read-out: Ki, inhibition of SGPL1 activity): 5.01 |
| CCCCCCCCCCCCC/C=C/[C@@H](O)[C@@H](N)COP(=O)(O)O [S1P, sphingosine-1-phosphate] |  | half-life in cerebrospinal fluid (CSF) [1]: approximately 10 minutes |
